Assays:
HBeAg = assay: Inhibition of HBeAg secretion (ELISA) in HepG2.2.15 cells; type: cell-based, hepatitis B virus (HBV); conditions: for IC50: Hepatitis B virus, HepG2.2.15, 216 h, read-out: HBeAg IC50; for HBeAg SI: SI (selectivity index) = CC50/IC50; for HBeAg IC50: ELISA, nine day treatment, mean ± S.D. (n = 3), '-' = inhibition ratio less than 50% in the test concentration range; for inhibition of HBV in vitro assay: in vitro assay (Table S1)
Protocol: HepG2.2.15 cells were kindly provided by the Chinese Academy of Medical Sciences (Beijing, China), derived from human hepatoma cell line G2. […] The compounds were diluted to the desired concentrations in culture medium. […] Every three days in a nine day period, supernatant of each well was replaced with compound-containing fresh medium.
(§1) The levels of HBeAg and HBsAg in the supernatant of the cells were measured using ELISA assay following the manufacturer’s protocol (Shanghai Kehua Bio-engineering Co., Ltd., Shanghai, China).

[1] = Cytotoxicity by MTT assay in HepG2.2.15 cells; type: cell-based; conditions: human, 50% cytotoxicity concentration in HepG 2.2.15 cells, mean ± S.D. (n = 3)
Protocol: (§2) HepG2.2.15 cells were kindly provided by the Chinese Academy of Medical Sciences (Beijing, China), derived from human hepatoma cell line G2. These cells were cultured in Dulbecco’s Modified Eagle’s Medium (DMEM), supplemented with 10% fetal bovine serum (FBS), 1.5 g/L of sodium bicarbonate, 10 mL/L of penicillin, and streptomycin, respectively, and 200 mg/L of G418 at 37 °C under 5% carbon dioxide in a 95–98% humidity. The compounds were diluted to the desired concentrations in culture medium. Before treated with various concentrations of compounds, cells were seeded at a density of 1 × 10^5 cells/mL in 96-well plates and incubated for 24 h at 37 °C. Every three days in a nine day period, supernatant of each well was replaced with compound-containing fresh medium.
The cytotoxicity activity of the synthesized compounds was determined by MTT assay. After refreshing the supernatant, 20 μL MTT (5 mg/mL) was added to each well, which was further cultured for 4 h at 37 °C. Then the supernatant of each well was carefully removed, formazan crystals were dissolved in […] of DMSO and the absorbance at 450 nm was recorded. Cytotoxicity of these compounds was expressed as the concentration of compound required to kill 50% (CC50) of the HepG2.2.15 cells.

HBsAg = assay: Inhibition of HBsAg secretion (ELISA) in HepG2.2.15 cells; type: cell-based, hepatitis B virus (HBV); conditions: for IC50: Hepatitis B virus, HepG2.2.15, 216 h, read-out: HBsAg IC50; for HBsAg SI: SI (selectivity index) = CC50/IC50
Protocol: as §2
as §1, with “China). The synthesized compounds were expressed as the concentration that achieved 50% inhibition (IC50) to the secretion of HBeAg and HBsAg.” for “China).”

[2] = HepG2.2.15 cells, result in words

CO/N=C1\CC[C@@]2(C)C(CC(=O)[C@H]3[C@@H]4CC[C@H]([C@H](C)CCC(=O)OCc5ccc6c(c5)OCO6)[C@@]4(C)C(=O)C[C@@H]32)C1 (stereo partly drawn) [Compound 2b-3, 3,4-Methylenedioxybenzyl (E)-3-(methoxyimino)-7,12-dioxocholanoate]
IC50 (HBeAg): 49.4 ± 12.8 µM | HBeAg SI (HBeAg): 11.03 | melting point: 118.7 to 120.7 °C | CC50 at 9 days [1]: 545 ± 28.9 µM

C[C@H](CCC(=O)OCc1ccccc1)[C@H]1CC[C@H]2[C@@H]3C(=O)CC4C/C(=N/OCc5ccccc5)CC[C@]4(C)[C@H]3CC(=O)[C@]12C (stereo partly drawn) [Compound 2a-2, Benzyl (E)-3-((benzyloxy)imino)-7,12-dioxocholanoate]
IC50 (HBeAg): 249 ± 47.6 µM | HBeAg SI (HBeAg): 0.85 | melting point: 135.3 to 137.3 °C | CC50 at 9 days [1]: 211 ± 17.1 µM

C[C@H](CCC(=O)OCc1ccc2c(c1)OCO2)[C@H]1CC[C@H]2[C@@H]3C(=O)CC4C/C(=N/OCc5ccccc5)CC[C@]4(C)[C@H]3CC(=O)[C@]12C (stereo partly drawn) [Compound 2b-2, 3,4-Methylenedioxybenzyl (E)-3-((benzyloxy)imino)-7,12-dioxocholanoate]
HBeAg IC50 (HBeAg; HepG2.2.15 cells): - (The inhibition ratio less than 50% in the test concentration range) | melting point: 124.3 to 126.3 °C | CC50 at 9 days [1]: 728 ± 45.2 µM

C[C@H](CCC(=O)OCc1ccco1)[C@H]1CC[C@H]2[C@@H]3C(=O)CC4C/C(=N/O)CC[C@]4(C)[C@H]3CC(=O)[C@]12C (stereo partly drawn) [Compound 2c-1, Furan-2-ylmethyl (E)-3-(hydroxyimino)-7,12-dioxocholanoate]
IC50 (HBeAg): 111 ± 28.3 µM | HBeAg SI (HBeAg): 1.40 | IC50 (HBsAg): 300 ± 15.3 µM | HBsAg SI (HBsAg): 0.52 | melting point: 193.2 to 195.2 °C | CC50 at 9 days [1]: 155 ± 30.8 µM

C[C@H](CCC(=O)OCc1ccc2c(c1)OCO2)[C@H]1CC[C@H]2[C@@H]3C(=O)CC4C/C(=N/O)CC[C@]4(C)[C@H]3CC(=O)[C@]12C (stereo partly drawn) [Compound 2b-1, 3,4-Methylenedioxybenzyl (E)-3-(hydroxyimino)-7,12-dioxocholanoate]
IC50 (HBeAg): 96.6 ± 29 µM | HBeAg SI (HBeAg): 10.35 | melting point: 182.5 to 184.5 °C | CC50 at 9 days [1]: > 1000 µM

CC(CCC(=O)O)C1CCC2C3C(=O)CC4CC(=NO)CCC4(C)C3CC(=O)C12C (stereo not drawn) [Compound 0-1, (E)-3-(hydroxyimino)-7,12-dioxolcholanic acid]
HBeAg IC50 (HBeAg; HepG2.2.15 cells): - (The inhibition ratio less than 50% in the test concentration range) | melting point: 250.4 to 252.4 °C | CC50 at 9 days [1]: > 1000 µM

CON=C1CCC2(C)C(CC(=O)C3C2CC(=O)C2(C)C(C(C)CCC(=O)O)CCC32)C1 (stereo not drawn) [Compound 0-3, (E)-3-(methoxyimino)-7,12-dioxolcholanic acid]
HBeAg IC50 (HBeAg; HepG2.2.15 cells): - (The inhibition ratio less than 50% in the test concentration range) | melting point: 197.2 to 199.2 °C | CC50 at 9 days [1]: > 1000 µM

C[C@H](CCC(=O)O)[C@H]1CC[C@H]2[C@@H]3C(=O)C[C@@H]4CC(=O)CC[C@]4(C)[C@H]3CC(=O)[C@]12C [DHCA, Dehydrocholic acid]
HBeAg IC50 (HBeAg; HepG2.2.15 cells): - (The inhibition ratio less than 50% in the test concentration range) | activity against the secretion of HBeAg (HBeAg; [2]): no activity | inhibition of HBV in vitro assay (HBeAg; result in words): did not exhibit inhibition | activity against the secretion of HBsAg (HBsAg; [2]): no activity | CC50 at 9 days [1]: > 1000 µM

C[C@H](CCC(=O)OCc1ccccc1)[C@H]1CC[C@H]2[C@@H]3C(=O)CC4C/C(=N/O)CC[C@]4(C)[C@H]3CC(=O)[C@]12C (stereo partly drawn) [Compound 2a-1, Benzyl (E)-3-(hydroxyimino)-7,12-dioxocholanoate]
IC50 (HBeAg): 229 ± 12.8 µM | HBeAg SI (HBeAg): 1.65 | IC50 (HBsAg): 630 ± 35 µM | HBsAg SI (HBsAg): 0.60 | melting point: 199.2 to 201.2 °C | CC50 at 9 days [1]: 378 ± 25.3 µM

CO/N=C1\CC[C@@]2(C)C(CC(=O)[C@H]3[C@@H]4CC[C@H]([C@H](C)CCC(=O)OCc5ccco5)[C@@]4(C)C(=O)C[C@@H]32)C1 (stereo partly drawn) [Compound 2c-3, Furan-2-ylmethyl (E)-3-(methoxyimino)-7,12-dioxocholanoate]
IC50 (HBeAg): 105 ± 22.2 µM | HBeAg SI (HBeAg): 0.86 | IC50 (HBsAg): 181 ± 52.8 µM | HBsAg SI (HBsAg): 0.50 | melting point: 122.3 to 124.3 °C | CC50 at 9 days [1]: 90.9 ± 15.6 µM

CO/N=C1\CC[C@@]2(C)[C@H](CC(=O)[C@@H]3[C@@H]2CC(=O)[C@]2(C)[C@@H]([C@H](C)CCC(=O)OCc4ccccc4)CC[C@@H]32)C1 [Compound 2a-3, Benzyl (E)-3-(methoxyimino)-7,12-dioxolcholanoate]
IC50 (HBeAg): 188 ± 9.51 µM | HBeAg SI (HBeAg): 0.90 | melting point: 132.6 to 134.6 °C | CC50 at 9 days [1]: 169 ± 5.75 µM

C[C@H](CCC(=O)OCc1ccco1)[C@H]1CC[C@H]2[C@@H]3C(=O)CC4C/C(=N/OCc5ccccc5)CC[C@]4(C)[C@H]3CC(=O)[C@]12C (stereo partly drawn) [Compound 2c-2, Furan-2-ylmethyl (E)-3-((benzyloxy)imino)-7,12-dioxocholanoate]
IC50 (HBeAg): 151 ± 32.1 µM | HBeAg SI (HBeAg): 0.67 | IC50 (HBsAg): 464 ± 20.1 µM | HBsAg SI (HBsAg): 0.22 | melting point: 131.5 to 133.5 °C | CC50 at 9 days [1]: 101 ± 10.7 µM

C[C@H](CCC(=O)O)[C@H]1CC[C@H]2[C@@H]3[C@H](O)C[C@@H]4C[C@H](O)CC[C@]4(C)[C@H]3C[C@H](O)[C@]12C [Cholic acid]
inhibition of HBV in vitro assay (HBeAg; result in words): did not exhibit inhibition

C=C1[C@H](CO)[C@@H](O)C[C@@H]1n1cnc2c(=O)[nH]c(N)nc21 [ETV, Entecavir, reference compound]
IC50 (HBeAg): 247 ± 50 µM | IC50 (HBsAg): 161 ± 35.9 µM | HBsAg SI (HBsAg): 3.72 | CC50 at 9 days [1]: 600 ± 23.4 µM

CC(CCC(=O)O)C1CCC2C3C(=O)CC4CC(=NOCc5ccccc5)CCC4(C)C3CC(=O)C12C (stereo not drawn) [Compound 0-2, (E)-3-((benzyloxy)imino)-7,12-dioxolcholanic acid]
IC50 (HBeAg): 119 ± 1.86 µM | HBeAg SI (HBeAg): 3.95 | melting point: 198.5 to 200.5 °C | CC50 at 9 days [1]: 470 ± 6.35 µM

— article PMC7435646, “Design, Synthesis and Bioactive Evaluation of Oxime Derivatives of Dehydrocholic Acid as Anti-Hepatitis B Virus Agents” (Molecules, 2020)
